Assay results from the supplement of paper PMC8671470.
± gives the standard deviation of the averaged measurements.

System: HL-60
Assay: cell viability (% survival relative to DMSO control); higher = less cytotoxic
Conditions: 72 h
Outline: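 Area under the curve, where listed, was derived from four-parameter log-logistic fits with drc and PharmacoGx. These fits used CellTiter-Glo viability from HL-60 cells in RPMI 1640 with 10% FBS, normalised to DMSO wells and wells holding 10 μM proteasome inhibitor. The full library was rescreened on 384-well plates in duplicate at five tenfold concentrations, 1–10,000 nM, with DMSO or 100 nM of one of three metabolic inhibitors, for 72 h at 37 °C, 5% CO2.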

[1] = 0.001 µM, co-treatment: AZD3965 100 nM
[2] = 0.001 µM, co-treatment: DMSO vehicle
[3] = 0.001 µM, co-treatment: GSK2194069 100 nM
[4] = 0.001 µM, co-treatment: pictilisib 100 nM
[5] = 0.01 µM, co-treatment: AZD3965 100 nM
[6] = 0.01 µM, co-treatment: DMSO vehicle
[7] = 0.01 µM, co-treatment: GSK2194069 100 nM
[8] = 0.01 µM, co-treatment: pictilisib 100 nM
[9] = 0.1 µM, co-treatment: AZD3965 100 nM
[10] = 0.1 µM, co-treatment: DMSO vehicle
[11] = 0.1 µM, co-treatment: GSK2194069 100 nM
[12] = 0.1 µM, co-treatment: pictilisib 100 nM
[13] = 1 µM, co-treatment: AZD3965 100 nM
[14] = 1 µM, co-treatment: DMSO vehicle
[15] = 1 µM, co-treatment: GSK2194069 100 nM
[16] = 1 µM, co-treatment: pictilisib 100 nM
[17] = 10 µM, co-treatment: AZD3965 100 nM
[18] = 10 µM, co-treatment: DMSO vehicle
[19] = 10 µM, co-treatment: GSK2194069 100 nM
[20] = 10 µM, co-treatment: pictilisib 100 nM

| Structure (SMILES) | cell viability [1] [%] | cell viability [2] [%] | cell viability [3] [%] | cell viability [4] [%] | cell viability [5] [%] | cell viability [6] [%] | cell viability [7] [%] | cell viability [8] [%] | cell viability [9] [%] | cell viability [10] [%] | cell viability [11] [%] | cell viability [12] [%] | cell viability [13] [%] | cell viability [14] [%] | cell viability [15] [%] | cell viability [16] [%] | cell viability [17] [%] | cell viability [18] [%] | cell viability [19] [%] | cell viability [20] [%] |
| --- | --- | --- | --- | --- | --- | --- | --- | --- | --- | --- | --- | --- | --- | --- | --- | --- | --- | --- | --- | --- |
| C[C@]12CC[C@H](O)CC1=CC[C@@H]1[C@@H]2CC[C@]2(C)C(c3cccnc3)=CC[C@@H]12 [Abiraterone] | 109 ± 10 | 97.8 ± 1.5 | 106.3 ± 0.78 | 104 ± 14 | 103 ± 1.9 | 98 ± 2.3 | 96.1 ± 4.2 | 102 ± 8 | 93.4 ± 14 | 93.1 ± 11 | 86.9 ± 16 | 84.9 ± 22 | 100.2 ± 0.73 | 97.9 ± 1.7 | 107 ± 11 | 99.5 ± 8.8 | 103 ± 5.8 | 105 ± 5.8 | 105 ± 8.8 | 108 ± 1.3 |
| O=C(COc1ccc(C(=O)c2ccccc2)cc1)NC1CCN(Cc2ccccc2)CC1 [AdipoRon] | 101 ± 1.2 | 99.7 ± 4.2 | 105 ± 6.7 | 97.7 ± 7.3 | 99.9 ± 9.8 | 100.3 ± 0.47 | 103 ± 5.5 | 104 ± 8 | 106 ± 2 | 104 ± 5.3 | 101 ± 3.1 | 97.7 ± 3.8 | 98.45 ± 0.62 | 80.8 ± 30 | 92.1 ± 7.6 | 92.4 ± 10 | 105 ± 3.6 | 105 ± 5.4 | 93.3 ± 6.3 | 91.2 ± 1.6 |
| CCOC(=O)[C@H]1O[C@@H]1C(=O)N[C@@H](CC(C)C)C(=O)NCCC(C)C [Aloxistatin] | 100 ± 1.1 | 102 ± 6 | 102 ± 11 | 106 ± 11 | 101 ± 4.6 | 104 ± 7.9 | 106 ± 15 | 115 ± 19 | 98 ± 5.8 | 100 ± 1.2 | 95.8 ± 2.5 | 100 ± 6.3 | 97.6 ± 3.7 | 100 ± 1.4 | 92.5 ± 11 | 106 ± 5.1 | 103 ± 6.2 | 99.7 ± 2.7 | 115 ± 23 | 99.7 ± 3.2 |
| N[C@](CCCCB(O)O)(CCN1CCCCC1)C(=O)O [Arginase inhibitor 1] | 94.6 ± 14 | 102.5 ± 0.45 | 91.7 ± 12 | 87.5 ± 14 | 98.6 ± 5.9 | 97.3 ± 2 | 100 ± 5.7 | 94.4 ± 4.9 | 99.9 ± 2.7 | 102 ± 3.7 | 109.7 ± 0.86 | 98.3 ± 3 | 99.151 ± 0.014 | 98.12 ± 0.95 | 90.6 ± 12 | 90.8 ± 6.9 | 102.3 ± 0.42 | 103 ± 7.5 | 101 ± 6.6 | 99.5 ± 2.6 |
| Cc1noc2c1-c1ccccc1C(c1ccc(Cl)cc1)=N[C@H]2CC(N)=O [CPI-0610] | 101 ± 2.2 | 96.3 ± 1.7 | 101 ± 1.7 | 104 ± 2.6 | 101 ± 1.5 | 95.3 ± 1.7 | 100.1 ± 0.39 | 94.4 ± 1.4 | 92 ± 14 | 98.8 ± 2.3 | 97.5 ± 6.9 | 75.5 ± 14 | 62.6 ± 7.4 | 74.8 ± 9.4 | 71.4 ± 2.1 | 45.8 ± 1.4 | 16.8 ± 1.1 | 23.7 ± 2.8 | 25.3 ± 6.1 | 8.68 ± 2.2 |
| Nc1ccn([C@@H]2O[C@H](CO)[C@@H](O)[C@@H]2O)c(=O)n1 [Cytarabine] | 82 ± 32 | 80.7 ± 36 | 99.2 ± 2.5 | 103 ± 14 | 96.1 ± 7.4 | 102 ± 1.5 | 97.4 ± 1.3 | 101 ± 5.1 | 99.4 ± 4.1 | 101 ± 2.5 | 95.8 ± 1.5 | 84.52 ± 0.57 | 46.7 ± 9.3 | 59.5 ± 7 | 60.6 ± 3.9 | 30.9 ± 0.58 | 6.3 ± 2.2 | 6.92 ± 1.2 | 7.86 ± 0.42 | 6.83 ± 3 |
| CCOc1ccc(Cc2cc([C@@H]3O[C@H](CO)[C@@H](O)[C@H](O)[C@H]3O)ccc2Cl)cc1 [Dapagliflozin] | 100.2 ± 0.34 | 105 ± 2.9 | 100.95 ± 0.06 | 99.1 ± 5.3 | 97.7 ± 4.2 | 101.3 ± 0.77 | 102 ± 1.1 | 103 ± 1.6 | 99.5 ± 0.33 | 100 ± 3.5 | 100 ± 4.8 | 101.6 ± 0.16 | 103.3 ± 0.55 | 99.6 ± 1.8 | 96 ± 1.6 | 104 ± 5.3 | 104 ± 2 | 103 ± 3.6 | 102 ± 4.6 | 100 ± 6.2 |
| CCN(CC)CCN(Cc1ccc(-c2ccc(C(F)(F)F)cc2)cc1)C(=O)Cn1c(SCc2ccc(F)cc2)nc(=O)c2c1CCC2 [Darapladib] | 96.2 ± 14 | 103.1 ± 0.25 | 98.7 ± 14 | 85.9 ± 27 | 100 ± 3.4 | 99.55 ± 0.55 | 97.8 ± 1.3 | 97.2 ± 7 | 104 ± 1.6 | 101 ± 6.2 | 99.8 ± 1.8 | 102 ± 4.5 | 93.7 ± 2.3 | 96.27 ± 0.22 | 84.4 ± 10 | 97.3 ± 7.4 | -1.351 ± 0.0054 | -2.41 ± 0.42 | -2.4 ± 0.029 | -2.26 ± 0.088 |
| O=C(O)C(Cl)Cl [Dichloroacetate] | 96.1 ± 3.5 | 96.5 ± 1.4 | 98.6 ± 9.5 | 89.5 ± 5.3 | 105 ± 4.1 | 104 ± 6.4 | 104 ± 2 | 100 ± 12 | 104 ± 4 | 102 ± 2.5 | 96.3 ± 9.7 | 91 ± 4 | 101 ± 2.4 | 101 ± 2.9 | 98.3 ± 5.9 | 99.9 ± 2.8 | 101 ± 1.1 | 100.4 ± 0.25 | 102.8 ± 0.97 | 97 ± 5.1 |
| O=C1Oc2ccccc2C(=O)C1CC1C(=O)Oc2ccccc2C1=O (stereo not given) [Dicumarol] | 101 ± 6 | 104 ± 3.1 | 122 ± 4.6 | 103 ± 4.7 | 73.3 ± 30 | 102 ± 6.2 | 62.5 ± 23 | 91 ± 15 | 100 ± 3.5 | 100 ± 1.2 | 95.5 ± 1.2 | 103 ± 9 | 101 ± 5.3 | 100 ± 8.3 | 98.8 ± 5.7 | 102 ± 11 | 97.7 ± 4 | 99.1 ± 4.8 | 85 ± 7 | 92.1 ± 5 |
